From US10538498B2, “1,3,4-oxadiazole sulfonamide derivative compounds as histone deacetylase 6 inhibitor, and the pharmaceutical composition comprising the same” (Chong Kun Dang Pharmaceutical Corp., priority 2015, dated 2020) come the findings set out here.

The test concerns the target T1, human recombinant HDAC6 (Homo sapiens, UniProt Q9UBN7).
T1 construct: purchased Calbiochem 382180
T1 sequence (Q9UBN7 1-1215): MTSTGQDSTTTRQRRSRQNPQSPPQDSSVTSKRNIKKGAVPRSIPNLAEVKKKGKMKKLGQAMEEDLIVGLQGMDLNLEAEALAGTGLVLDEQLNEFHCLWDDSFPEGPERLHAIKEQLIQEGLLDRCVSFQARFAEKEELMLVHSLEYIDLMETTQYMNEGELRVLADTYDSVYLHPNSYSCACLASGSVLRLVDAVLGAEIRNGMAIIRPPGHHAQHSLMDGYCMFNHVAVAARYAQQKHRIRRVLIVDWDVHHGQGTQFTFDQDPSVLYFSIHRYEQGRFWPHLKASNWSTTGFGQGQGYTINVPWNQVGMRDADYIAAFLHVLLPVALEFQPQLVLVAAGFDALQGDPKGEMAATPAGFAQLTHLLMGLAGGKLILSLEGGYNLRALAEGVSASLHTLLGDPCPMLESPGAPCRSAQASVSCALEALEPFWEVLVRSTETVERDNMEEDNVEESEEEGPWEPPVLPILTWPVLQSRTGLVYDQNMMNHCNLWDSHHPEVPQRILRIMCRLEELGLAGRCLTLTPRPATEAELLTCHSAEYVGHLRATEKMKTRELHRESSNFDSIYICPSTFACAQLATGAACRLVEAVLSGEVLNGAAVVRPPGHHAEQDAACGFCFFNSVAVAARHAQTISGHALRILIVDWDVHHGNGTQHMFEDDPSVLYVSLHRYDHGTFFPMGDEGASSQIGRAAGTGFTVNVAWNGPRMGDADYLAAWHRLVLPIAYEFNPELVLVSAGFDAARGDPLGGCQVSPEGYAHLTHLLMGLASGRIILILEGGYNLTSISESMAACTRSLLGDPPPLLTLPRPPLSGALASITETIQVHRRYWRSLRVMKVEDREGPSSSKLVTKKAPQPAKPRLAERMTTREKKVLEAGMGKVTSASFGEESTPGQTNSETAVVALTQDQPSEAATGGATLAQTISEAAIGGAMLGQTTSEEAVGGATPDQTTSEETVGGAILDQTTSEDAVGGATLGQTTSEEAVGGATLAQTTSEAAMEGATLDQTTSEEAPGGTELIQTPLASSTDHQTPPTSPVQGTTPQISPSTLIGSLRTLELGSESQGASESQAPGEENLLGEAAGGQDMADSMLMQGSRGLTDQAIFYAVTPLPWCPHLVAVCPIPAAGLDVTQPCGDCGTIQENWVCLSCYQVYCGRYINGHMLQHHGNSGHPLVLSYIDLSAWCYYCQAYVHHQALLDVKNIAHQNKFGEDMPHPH
Description: HDAC6 enzyme activity inhibition assay (HDAC Fluorimetric Drug Discovery Kit). Format: biochemical. To be noted: for HDAC6 selectivity (fold): HDAC1 vs HDAC6; for IC50: same protocol as the HDAC1 enzyme activity test. The method, boiled down:
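Fluorescence (Ex 360, Em 460) after 30 min developer step; IC50 from dose-response. Reaction: 0.3 μg recombinant enzyme, 10 μM Fluor de Lys-SIRT1 substrate, 5-fold compound dilutions, 60 min at 30° C. Same protocol for both isoforms.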

Take `CCC(=O)N1CC(N2CCC(S(=O)(=O)N(Cc3ccc(-c4nnc(C(F)F)o4)cn3)c3cccc(Cl)c3)CC2)C1` [Compound 11782, N-(3-chlorophenyl)-N-((5-(5-(difluoromethyl)-1,3,4-oxadiazol-2-yl)pyridin-2-yl)methyl)-1-(1-propionylazetidin-3-yl)piperidine-4-sulfonamide]: the “HDAC6 selectivity (fold)” value stood at 4032 fold and the half-maximal inhibitory concentration (IC50) worked out at 24.8 nM.
For `O=C(C1CC1)N1CC(N2CCC(S(=O)(=O)N(Cc3ccc(-c4nnc(C(F)F)o4)cc3)c3cccc(Cl)c3)CC2)C1` [Compound 11783, N-(3-chlorophenyl)-1-(1-(cyclopropanecarbonyl)azetidin-3-yl)-N-(4-(5-(difluoromethyl)-1,3,4-oxadiazol-2-yl)benzyl)piperidine-4-sulfonamide] the same measures were 1440 fold and 69.4 nM.
`O=C(C1CC1)N1CC(N2CCC(S(=O)(=O)N(Cc3ccc(-c4nnc(C(F)F)o4)cn3)c3cccc(Cl)c3)CC2)C1` [Compound 11784, N-(3-chlorophenyl)-1-(1-(cyclopropanecarbonyl)azetidin-3-yl)-N-((5-(5-(difluoromethyl)-1,3,4-oxadiazol-2-yl)pyridin-2-yl)methyl)piperidine-4-sulfonamide]: the “HDAC6 selectivity (fold)” value was found to be 3154 fold and the IC50 amounted to 31.7 nM.
For `CN1CC(N2CCC(S(=O)(=O)N(Cc3ccc(-c4nnc(C(F)F)o4)cc3)c3cccc(Cl)c3)CC2)C1` [Compound 11785, N-(3-chlorophenyl)-N-(4-(5-(difluoromethyl)-1,3,4-oxadiazol-2-yl)benzyl)-1-(1-methylazetidin-3-yl)piperidine-4-sulfonamide] the same measures were 2092 fold and 47.8 nM.
Regarding `O=S(=O)(CCN1CCC(F)CC1)N(Cc1ccc(-c2nnc(C(F)F)o2)cn1)c1ccc(F)c(Cl)c1` [Compound 11786, N-(3-chloro-4-fluorophenyl)-N-((5-(5-(difluoromethyl)-1,3,4-oxadiazol-2-yl)pyridin-2-yl)methyl)-2-(4-fluoropiperidin-1-yl)ethane-1-sulfonamide], the “HDAC6 selectivity (fold)” value amounted to 1828 fold and the half-maximal inhibitory concentration (IC50) was 54.7 nM.
For `COCC(C)N1CCC(S(=O)(=O)N(Cc2ccc(-c3nnc(C(F)F)o3)cn2)c2ccccc2)CC1` (stereo not shown) [Compound 11790, N-((5-(5-(difluoromethyl)-1,3,4-oxadiazol-2-yl)pyridin-2-yl)methyl)-1-(1-methoxypropan-2-yl)-N-phenylpiperidine-4-sulfonamide] the same measures were 2227 fold and 44.6 nM.
For `O=S(=O)(C1CCN(C2CC(O)C2)CC1)N(Cc1ccc(-c2nnc(C(F)F)o2)cn1)c1ccccc1` (stereo not shown) [Compound 11791, N-((5-(5-(difluoromethyl)-1,3,4-oxadiazol-2-yl)pyridin-2-yl)methyl)-1-(3-hydroxycyclobutyl)-N-phenylpiperidine-4-sulfonamide] the same measures were 2114 fold and 47.3 nM.
Turning to `Cc1cccc(N(Cc2ccc(-c3nnc(C(F)F)o3)cc2)S(=O)(=O)C2CCN(C3CC(O)C3)CC2)c1` (stereo not shown) [Compound 11792, N-(4-(5-(difluoromethyl)-1,3,4-oxadiazol-2-yl)benzyl)-1-(3-hydroxycyclobutyl)-N-(m-tolyl)piperidine-4-sulfonamide], the “HDAC6 selectivity (fold)” value is given as 1218 fold and the half-inhibitory concentration (IC50) was determined as 82.1 nM.
For `O=S(=O)(C1CCN(C2CC(O)C2)CC1)N(Cc1ccc(-c2nnc(C(F)F)o2)cc1)c1cccc(Cl)c1` (stereo not shown) [Compound 11793, N-(3-chlorophenyl)-N-(4-(5-(difluoromethyl)-1,3,4-oxadiazol-2-yl)benzyl)-1-(3-hydroxycyclobutyl)piperidine-4-sulfonamide] the same measures were 1718 fold and 58.2 nM.
For the compound `O=S(=O)(C1CCN(C2CCC2)CC1)N(Cc1ccc(-c2nnc(C(F)F)o2)cn1)c1ccccc1` [Compound 11794, 1-cyclobutyl-N-((5-(5-(difluoromethyl)-1,3,4-oxadiazol-2-yl)pyridin-2-yl)methyl)-N-phenylpiperidine-4-sulfonamide], the “HDAC6 selectivity (fold)” value came out at 2192 fold and the IC50 came out at 45.6 nM.
For `O=S(=O)(CCN1CC[C@H](F)C1)N(Cc1ccc(-c2nnc(C(F)F)o2)cc1)c1ccccc1` [Compound 11795, (S)—N-(4-(5-(difluoromethyl)-1,3,4-oxadiazol-2-yl)benzyl)-2-(3-fluoropyrrolidin-1-yl)-N-phenylethane-1-sulfonamide] the same measures were 1466 fold and 68.2 nM.
Regarding `O=S(=O)(CCN(Cc1ccccc1)Cc1ccccc1)N(Cc1ccc(-c2nnc(C(F)F)o2)cc1)c1ccccc1` [Compound 11796, 2-(dibenzylamino)-N-(4-(5-(difluoromethyl)-1,3,4-oxadiazol-2-yl)benzyl)-N-phenylethane-1-sulfonamide], the “HDAC6 selectivity (fold)” value stood at 56 fold and the IC50 is 1780 nM.
On to `CN(C)CCS(=O)(=O)N(Cc1ccc(-c2nnc(C(F)F)o2)cc1)c1ccccc1` [Compound 11797, N-(4-(5-(difluoromethyl)-1,3,4-oxadiazol-2-yl)benzyl)-2-(dimethylamino)-N-phenylethane-1-sulfonamide], for which the “HDAC6 selectivity (fold)” value is listed as 821 fold and the half-maximal inhibitory concentration (IC50) is 122 nM.
The like results for `CCN(CC)CCS(=O)(=O)N(Cc1ccc(-c2nnc(C(F)F)o2)cc1)c1ccccc1` [Compound 11798, 2-(diethylamino)-N-(4-(5-(difluoromethyl)-1,3,4-oxadiazol-2-yl)benzyl)-N-phenylethane-1-sulfonamide] were, in that order, 538 fold and 186 nM.
For `O=S(=O)(CCN1CC(O)C1)N(Cc1ccc(-c2nnc(C(F)F)o2)cc1)c1ccccc1` [Compound 11799, N-(4-(5-(difluoromethyl)-1,3,4-oxadiazol-2-yl)benzyl)-2-(3-hydroxyazetidine-1-yl)-N-phenylethane-1-sulfonamide] the same measures were 516 fold and 194 nM.
For `O=S(=O)(CCN1CC[C@H](O)C1)N(Cc1ccc(-c2nnc(C(F)F)o2)cc1)c1ccccc1` [Compound 11800, (S)—N-(4-(5-(difluoromethyl)-1,3,4-oxadiazol-2-yl)benzyl)-2-(3-hydroxypyrrolidin-1-yl)-N-phenylethane-1-sulfonamide] the same measures were 2252 fold and 44.4 nM.
On to `O=S(=O)(CCN1CC[C@@H](O)C1)N(Cc1ccc(-c2nnc(C(F)F)o2)cc1)c1ccccc1` [Compound 11801, (R)—N-(4-(5-(difluoromethyl)-1,3,4-oxadiazol-2-yl)benzyl)-2-(3-hydroxypyrrolidin-1-yl)-N-phenylethane-1-sulfonamide], for which the “HDAC6 selectivity (fold)” value is recorded as 2941 fold and the 50% inhibitory concentration (IC50) was 34 nM.
The like results for `O=S(=O)(CCN1CCC[C@H]1CO)N(Cc1ccc(-c2nnc(C(F)F)o2)cc1)c1ccccc1` [Compound 11802, (S)—N-(4-(5-(difluoromethyl)-1,3,4-oxadiazol-2-yl)benzyl)-2-(2-(hydroxymethyl)pyrrolidin-1-yl)-N-phenylethane-1-sulfonamide] were, in that order, 2849 fold and 35.1 nM.
For the compound `O=S(=O)(CCN1CCC[C@@H]1CO)N(Cc1ccc(-c2nnc(C(F)F)o2)cc1)c1ccccc1` [Compound 11803, (R)—N-(4-(5-(difluoromethyl)-1,3,4-oxadiazol-2-yl)benzyl)-2-(2-(hydroxymethyl)pyrrolidin-1-yl)-N-phenylethane-1-sulfonamide], the “HDAC6 selectivity (fold)” value came to 4587 fold and the half-inhibitory concentration (IC50) is 21.8 nM.
For `O=S(=O)(CCN1CC[C@H](CO)C1)N(Cc1ccc(-c2nnc(C(F)F)o2)cc1)c1ccccc1` [Compound 11804, (S)—N-(4-(5-(difluoromethyl)-1,3,4-oxadiazol-2-yl)benzyl)-2-(3-(hydroxymethyl)pyrrolidin-1-yl)-N-phenylethane-1-sulfonamide] the same measures were 3115 fold and 32.1 nM.
